{"source": "ChEMBL document CHEMBL1131546", "about": "“Synthesis and pharmacological evaluation of benzofuran-acetamides as \"antineophobic\" mitochondrial DBI receptor complex ligands” (Bioorg Med Chem Lett, 1998)", "key": {"[1]": {"test": "Binding affinity was determined as the ability to displace [3H]4''CD from the (mDRC) mitochondrial DBI receptor complex using primary cultures of glial cells", "set-up": "species or system Rattus norvegicus"}, "Rattus norvegicus [2]": {"tested_on": "Rattus norvegicus", "test": "Tested for antineophobic activity in rats using elevated maze test upon 59 umol/kg peroral administration, expressed as number of entries into the open arms after 45 min of administration", "assay_type": "functional"}, "Rattus norvegicus [3]": {"tested_on": "Rattus norvegicus", "test": "Tested for antineophobic activity in rats using elevated maze test upon 59 umol/kg po administration, expressed as percent of time spent into open arms after 45 min of administration", "assay_type": "functional"}, "Rattus norvegicus [4]": {"tested_on": "Rattus norvegicus", "test": "Tested for antineophobic activity in rats using elevated maze test upon 70 umol/kg peroral administration, expressed as number of entries into the open arms after 45 min of administration", "assay_type": "functional"}, "Rattus norvegicus [5]": {"tested_on": "Rattus norvegicus", "test": "Tested for antineophobic activity in rats using elevated maze test upon 70 umol/kg peroral administration, expressed as percent of time spent into open arms after 45 min of administration", "assay_type": "functional"}, "[6]": {"test": "Concentration required to stimulate pregnenolone formation in the mitochondria of C6-2B glioma cells.", "assay_type": "functional, Rattus norvegicus"}, "Rattus norvegicus [7]": {"tested_on": "Rattus norvegicus", "test": "Tested for antineophobic activity in rats using elevated maze test upon 57 umol/kg peroral administration, expressed as percent of time spent into open arms after 45 min of administration", "assay_type": "functional"}, "Rattus norvegicus [8]": {"tested_on": "Rattus norvegicus", "test": "Tested for antineophobic activity in rats using elevated maze test upon 57 umol/kg peroral administration, expressed as number of entries into the open arms after 45 min of administration", "assay_type": "functional"}, "Rattus norvegicus [9]": {"tested_on": "Rattus norvegicus", "test": "Tested for antineophobic activity in rats using elevated maze test upon 53 umol/kg peroral administration, expressed as number of entries into the open arms after 45 min of administration", "assay_type": "functional"}, "Rattus norvegicus [10]": {"tested_on": "Rattus norvegicus", "test": "Tested for antineophobic activity in rats using elevated maze test upon 53 umol/kg peroral administration, expressed as percent of time spent into open arms after 45 min of administration", "assay_type": "functional"}}}
{"smiles": "CCCCCCN(CCCCCC)C(=O)Cc1c(-c2ccccc2)oc2ccccc12", "values": [{"measurement": "Ki", "setting": "[1]", "value": 14, "unit": "nM"}, {"measurement": "No. of openarm entries", "setting": "Rattus norvegicus [2]", "value": 2.6}, {"measurement": "Time", "setting": "Rattus norvegicus [3]", "value": 4.5, "unit": "%"}]}
{"smiles": "CCCCCCN(CCCCCC)C(=O)Cc1c(-c2ccccc2)oc2ccc(Cl)cc12", "values": [{"measurement": "Ki", "setting": "[1]", "value": 32, "unit": "nM"}, {"measurement": "No. of openarm entries", "setting": "Rattus norvegicus [4]", "value": 2.1}, {"measurement": "Time", "setting": "Rattus norvegicus [5]", "value": 4.7, "unit": "%"}]}
{"smiles": "CCCCCCN(CCCCCC)C(=O)Cc1c(-c2ccc(F)cc2)[nH]c2ccccc12", "values": [{"measurement": "Ki", "setting": "[1]", "value": 4.4, "unit": "nM"}, {"measurement": "EC50", "setting": "[6]", "value": 3, "unit": "nM"}, {"measurement": "Time", "setting": "Rattus norvegicus [7]", "value": 4.5, "unit": "%"}, {"measurement": "No. of openarm entries", "setting": "Rattus norvegicus [8]", "value": 2.1}]}
{"smiles": "CCCCCCN(CCCCCC)C(=O)Cc1c(-c2ccc(N)cc2)oc2ccccc12", "values": [{"measurement": "Ki", "setting": "[1]", "value": 35, "unit": "nM"}]}
{"smiles": "CCCCCCN(CCCCCC)C(=O)Cc1c(-c2ccc(F)cc2)oc2ccc(Cl)cc12", "values": [{"measurement": "Ki", "setting": "[1]", "value": 32, "unit": "nM"}, {"measurement": "No. of openarm entries", "setting": "Rattus norvegicus [9]", "value": 2.3}, {"measurement": "Time", "setting": "Rattus norvegicus [10]", "value": 4.7, "unit": "%"}]}
{"smiles": "CCCCCCN(CCCCCC)C(=O)Cc1c(-c2ccc(F)cc2)oc2ccccc12", "values": [{"measurement": "Ki", "setting": "[1]", "value": 8, "unit": "nM"}, {"measurement": "Time", "setting": "Rattus norvegicus [7]", "value": 5.1, "unit": "%"}, {"measurement": "No. of openarm entries", "setting": "Rattus norvegicus [8]", "value": 2.1}]}
{"smiles": "CCCCCCN(CCCCCC)C(=O)Cc1c(-c2ccc(I)cc2)oc2ccccc12", "values": [{"measurement": "Ki", "setting": "[1]", "value": 80, "unit": "nM"}]}
